Source: patent US7749316B2, “Water-based inks for ink-jet printing” (Kao Corporation, priority 2006, dated 2010)

Experiments:
[1] = Solubility of nonionic organic compound in water; details: for solubility in 100 g of water: in 100 g of water as measured at 25° C.; for Solubility of nonionic organic compound: saturated solubility in 100 g of water, 25° C.
Protocol: The solubility is expressed by a saturated solubility of the nonionic organic compound in 100 g of water. The stirring for the measurement was conducted within 1 h.

[2] = Surface tension of water containing nonionic organic compound; format: physicochemical; details: 0.001 g of compound in 100 g of water, 25° C.
Text: The lower limit of the surface tension is preferably 40 mN/m or more.

| SMILES | solubility in 100 g of water [1] | Surface tension of water containing nonionic organic compound [2] | Solubility of nonionic organic compound [1] | Surface tension of water containing nonionic organic compound ([2]; listed as lauric acid monoglyceride) |
| --- | --- | --- | --- | --- |
| CCCCCCCCC(O)CO (centres unmarked) [1,2-decanediol] | 0.055 g | 55 mN/m |  |  |
| CCCCCCC(O)CO (centres unmarked) [1,2-octanediol] | 0.20 g | 65 mN/m |  |  |
| CCCCC(CC)COCC(O)CO (centres unmarked) [2-ethylhexyl glyceryl ether] | 0.15 g | 62 mN/m |  |  |
| CCCCCCCCCCC(O)CO (centres unmarked) [PO-1, 1,2-Dodecanediol] | 0.001 g | 47.1 mN/m | 0.001 g/100 g |  |
| CCCCCCCCCCCC(=O)OCC(O)CO (centres unmarked) [PO-2, Dodecanoic acid monoglyceride] | 0.005 g | 65 mN/m | 0.15 g/100 g | 63 mN/m |
| CC(C)CCCCCCCOCC(O)CO (centres unmarked) [PO-3, Isodecyl monoglyceryl ether] | 0.05 g | 57.8 mN/m | 0.05 g/100 g |  |
| CCCCCCCCCC(=O)OCC(O)CO (centres unmarked) [decanoic acid monoglyceride] |  | 65 mN/m |  |  |
